# Experimental data taken from PubChem BioAssay AID328 (DTP/NCI, 2004).
# Values joined by “and” are separate entries in the source; they are usually repeats but may differ in a detail not shown here. Equal values may be shown once. Toxic doses and inconclusive results are not listed.
# Test system: BDF1 mice, P388 leukemia ip, median survival T/C
# Experiment: NCI In Vivo Anticancer Drug Screen. Data for tumor model P388 Leukemia (intraperitoneal) in B6D2F1 (BDF1) mice
# Conditions: endpoint: median survival time, higher = longer survival
# Procedure, shortened: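 Antitumour effect was judged in vivo: survival in drug-treated mice, normalised to that of vehicle-dosed controls, gives the reported T/C.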
# [1] = dose: 100.0 mg/kg/injection, schedule: Q04DX003 (ip), vehicle: saline with Tween-80
# [2] = dose: 200.0 mg/kg/injection, schedule: Q01DX009 (ip), vehicle: saline with Tween-80
# [3] = dose: 200.0 mg/kg/injection, schedule: Q04DX003 (ip), vehicle: saline with Tween-80
# [4] = dose: 400.0 mg/kg/injection, schedule: Q04DX003 (ip), vehicle: saline with Tween-80
# [5] = dose: 25.0 mg/kg/injection, schedule: Q01DX009 (ip), vehicle: saline with Tween-80
# [6] = dose: 50.0 mg/kg/injection, schedule: Q01DX009 (ip), vehicle: saline with Tween-80
# [7] = dose: 100.0 mg/kg/injection, schedule: Q01DX009 (ip), vehicle: Klucel (hydroxypropylcellulose) (HPC)
compound,measurement,setting,value
CCCCCC(=O)O[C@]1(C(C)=O)CC[C@H]2[C@@H]3CCC4=CC(=O)CC[C@]4(C)[C@H]3CC[C@@]21C,T/C,"dose: 44.0 mg/kg/injection, schedule: Q01DX009 (ip), vehicle: saline with Tween-80",105 % of control
same,T/C,"dose: 66.0 mg/kg/injection, schedule: Q01DX009 (ip), vehicle: saline with Tween-80",110 % of control
same,T/C,"dose: 100.0 mg/kg/injection, schedule: Q01DX009 (ip), vehicle: saline with Tween-80",90 % of control
same,T/C,[1],100 % of control
same,T/C,"dose: 150.0 mg/kg/injection, schedule: Q01DX009 (ip), vehicle: saline with Tween-80",100 % of control
same,T/C,[2],105 % of control
same,T/C,[3],100 % of control
same,T/C,"dose: 400.0 mg/kg/injection, schedule: Q01DX009 (ip), vehicle: saline with Tween-80",100 % of control
same,T/C,[4],100 % of control
O=[N+]([O-])c1ccc(S(=O)(=O)Cc2ccccc2)c2c1no[n+]2[O-],T/C,[5],116 % of control
same,T/C,[6],116 % of control
Cc1c[n+]([O-])ccc1Br,T/C,"dose: 6.25 mg/kg/injection, schedule: Q04DX003 (ip), vehicle: water",100 % of control
same,T/C,"dose: 12.5 mg/kg/injection, schedule: Q04DX003 (ip), vehicle: water",100 % of control
same,T/C,"dose: 25.0 mg/kg/injection, schedule: Q04DX003 (ip), vehicle: water",112 % of control
same,T/C,"dose: 50.0 mg/kg/injection, schedule: Q04DX003 (ip), vehicle: water",99 % of control
same,T/C,"dose: 100.0 mg/kg/injection, schedule: Q04DX003 (ip), vehicle: water",100 % of control
COC(=O)C1C(O)C(C)C(=O)C(C)/C=C\C=C(C)C(=O)Nc2c(C)c(OC(C)=O)c3c(c2O)C(=O)C(C)=C2OCOC(=C23)C(C)=CC(C)(O)C(O)C(C)C1O (configuration not stated),T/C,[7],101 % of control
same,T/C,"dose: 200.0 mg/kg/injection, schedule: Q01DX009 (ip), vehicle: Klucel (hydroxypropylcellulose) (HPC)",101 % of control
same,T/C,"dose: 400.0 mg/kg/injection, schedule: Q01DX009 (ip), vehicle: Klucel (hydroxypropylcellulose) (HPC)",101 % of control
CCCCNP(=O)(N1CC1)N1CC1,T/C,"dose: 8.0 mg/kg/injection, schedule: Q04DX003 (ip), vehicle: saline with Tween-80",116 % of control
same,T/C,"dose: 8.25 mg/kg/injection, schedule: Q04DX003 (ip), vehicle: saline with Tween-80",154 % of control
same,T/C,"dose: 12.0 mg/kg/injection, schedule: Q04DX003 (ip), vehicle: saline with Tween-80",100 % of control
same,T/C,"dose: 12.5 mg/kg/injection, schedule: Q04DX003 (ip), vehicle: saline with Tween-80",190 % of control
same,T/C,"dose: 18.75 mg/kg/injection, schedule: Q04DX003 (ip), vehicle: saline with Tween-80",218 % of control
COC1CC(N=[N+]=[N-])C(O)C(C)O1 (configuration not stated),T/C,[1],118 % of control and 101 % of control
same,T/C,[3],110 % of control and 101 % of control
same,T/C,[4],118 % of control and 93 % of control
same,T/C,"dose: 500.0 mg/kg/injection, schedule: Q04DX003 (ip), vehicle: saline with Tween-80",109 % of control
CC1=NN(c2ccccc2)C(=O)C1=Nc1c(C)[nH]n(-c2ccccc2)c1=O,T/C,"dose: 30.0 mg/kg/injection, schedule: Q01DX009 (ip), vehicle: saline with Tween-80",96 % of control
same,T/C,"dose: 60.0 mg/kg/injection, schedule: Q01DX009 (ip), vehicle: saline with Tween-80",91 % of control
CC1=C/C(O)CC(=O)Cc2nc(co2)C(=O)N2CCC=C2C(=O)OC(C(C)C)C(C)/C=C\C(=O)NC/C=C\1 (configuration not stated),T/C,[7],118 % of control
same,T/C,"dose: 0.5 micrograms/kg/injection, schedule: Q01DX009 (ip), vehicle: saline",105 % of control
same,T/C,"dose: 1.0 micrograms/kg/injection, schedule: Q01DX009 (ip), vehicle: saline",101 % of control
same,T/C,"dose: 2.0 micrograms/kg/injection, schedule: Q01DX009 (ip), vehicle: saline",108 % of control
same,T/C,"dose: 4.0 micrograms/kg/injection, schedule: Q01DX009 (ip), vehicle: saline",101 % of control
O=S(=O)(O)c1c(Cl)c(Cl)c(Cl)c(Cl)c1Cl,T/C,"dose: 50.0 mg/kg/injection, schedule: Q04DX003 (ip), vehicle: suspension in saline",115 % of control
same,T/C,"dose: 100.0 mg/kg/injection, schedule: Q04DX003 (ip), vehicle: suspension in saline",116 % of control
same,T/C,"dose: 200.0 mg/kg/injection, schedule: Q04DX003 (ip), vehicle: suspension in saline",114 % of control
O=C(c1ccccc1)C12CC3CC(CC(C3)C1)C2,T/C,"dose: 6.25 mg/kg/injection, schedule: Q01DX009 (ip), vehicle: saline with Tween-80",90 % of control and 98 % of control
same,T/C,"dose: 12.5 mg/kg/injection, schedule: Q01DX009 (ip), vehicle: saline with Tween-80",90 % of control
same,T/C,[5],90 % of control and 99 % of control
same,T/C,[6],97 % of control
same,T/C,[2],107 % of control
N/C(=N\OS(=O)(=O)c1ccccc1)OC1CCCCC1,T/C,[1],99 % of control
same,T/C,[3],98 % of control
same,T/C,[4],98 % of control
C/C(C/C(C)=N\NC(=O)CN)=N/NC(=O)CN,T/C,"dose: 33.75 mg/kg/injection, schedule: Q01DX009 (ip), vehicle: saline with Tween-80",104 % of control
same,T/C,"dose: 67.5 mg/kg/injection, schedule: Q01DX009 (ip), vehicle: saline with Tween-80",100 % of control
same,T/C,"dose: 135.0 mg/kg/injection, schedule: Q01DX009 (ip), vehicle: saline with Tween-80",106 % of control
Cc1ccc(C(O)c2c(C)cc(C)cc2C)c(C)c1 (configuration not stated),T/C,"dose: 100.0 mg/kg/injection, schedule: Q01DX001 (ip), vehicle: saline with Tween-80",100 % of control
same,T/C,"dose: 200.0 mg/kg/injection, schedule: Q01DX001 (ip), vehicle: saline with Tween-80",100 % of control
same,T/C,"dose: 400.0 mg/kg/injection, schedule: Q01DX001 (ip), vehicle: saline with Tween-80",100 % of control
